Laboratory results taken from PMC10493609 (Frontiers in Immunology, 2023).

Biological target: T1, Galectin-3 (Gal-3) (Homo sapiens, UniProt P17931)
T1 construct: gene LGALS3; Human recombinant Gal-3
Test: SPR kinetic analysis (Biacore)
Type: binding

T1 sequence (P17931 2-250): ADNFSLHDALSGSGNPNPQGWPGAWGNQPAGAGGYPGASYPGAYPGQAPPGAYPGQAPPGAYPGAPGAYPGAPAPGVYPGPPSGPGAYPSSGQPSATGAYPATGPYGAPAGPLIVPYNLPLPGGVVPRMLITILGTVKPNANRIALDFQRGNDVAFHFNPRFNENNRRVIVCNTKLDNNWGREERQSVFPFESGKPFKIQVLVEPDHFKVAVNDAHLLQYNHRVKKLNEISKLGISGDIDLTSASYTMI

GB1211
Kd: 23.3 nM
